Source: patent publication US7906709B2, “Methods for breeding glyphosate resistant plants and compositions thereof” (priority 2006, dated 2011)

What was measured:
[1] = tested on: backcrossed turfgrass samples; assay: Glyphosate resistance phenotype of backcrossed turfgrass samples; format: in vivo
From the text: In some embodiments, the germplasm can have more than one glyphosate resistant allele. At least one of the glyphosate resistant alleles is the single nucleotide polymorphism (“SNP”) for the EPSPS gene at nt301 of SEQ. ID. NO. 1. By sequencing of the EPSPS from sensitive and resistant ryegrass biotypes the SNP was identified. A change from cytosine to thymine at this position changes the amino acid from proline to serine. The SNP at nt301 of SEQ. ID. NO. 1 can be used as a marker to identify plants that carry the allele of the resistant form of EPSPS. As shown in Table 1 and highlighted in the Examples below, a second allele can contribute to the glyphosate resistance.
Having both the first allele (the SNP) and the second allele in a plant such as, for example, a turf grass, can increase resistance to glyphosate. In some embodiments, the second allele may be attributed to glyphosate oxidoreductase (“GOX”) enzyme encoded by a GOX gene. Only one of the alleles may be needed to produce a glyphosate resistant plant such as for example, a turfgrass. In some embodiments, the second allele can be identified as the Gly-Rest 2 gene. The Gly-Rest 2 gene encodes a glyphosate resistant protein that can be identified as the Gly-Resist Protein (“GRP”) which is different from the glyphosate resistant EPSPS. To identify which plants have only the GRP protein, the following is an example of an analysis that can be useful. The plants that have been crossed with a known glyphosate resistant parent are grown. A herbicidally effective amount of glyphosate is applied to the plants. The plants that survive the application are selected and a part of the plant is then used to determine if a biomarker for glyphosate resistant EPSPS is present. An example of such an analysis is discussed in the examples below. If the biomarker is present, then the plant has at least glyphosate resistant EPSPS and may have GRP. […] A biomarker analysis for GRP can be designed and designing such an analysis is well within the knowledge of those skilled in the art.

[2] = tested on: F1 progeny of R and S lines of California rigid ryegrass; assay: Glyphosate sensitivity of F1 progeny (RxS, SxR); format: in vivo, Lolium rigidum
From the text: Cross-pollination is arranged in the greenhouse between one plant each of the R and S lines which have similar maturity. To prevent pollen contamination from un-wanted ryegrass, the plants are covered with transparent plastic. The likelihood of selfing is less than 3% as discussed in, for example, Thorogood, Perennial Ryegrass (Lolium perenne L.) in M. D. Casler and R. R. Duncan, eds. Turfgrass Biology, Genetics, and Breeding, John Wiley & Sons, Inc., pp. 75-105 (2003). About 500 seeds from both R and S plants are harvested at maturity and kept separately. F1 plants are grown and maintained similarly as previously described. The F1 progeny are evaluated for glyphosate sensitivity when the plants are 5 to 8 cm tall. Glyphosate is sprayed at 0.125×, 0.5×, 0.25×, 1×, 2×, 4×, 6×, and 8× and the spray solutions prepared and delivered as described previously. The response of 10 plants in each of two experiments to glyphosate is recorded 3 and 4 WAT.

[3] = tested on: F2 population of rigid ryegrass; assay: Glyphosate sensitivity of F2 population (RxS intercross); format: in vivo, Lolium rigidum; conditions: of 400 F2 plants
Protocol: Twenty uniform non-sprayed plants of the F1 progeny (R×S) are grown and pooled to allow intercrossing to generate F2. Seeds are harvested at maturity and grown as described previously. Glyphosate sensitivity is further evaluated in the F2 population. At the tillering stage, as described previously, 400 plants of the F2 population are sprayed with 0.125× glyphosate (the rate used to identify the sensitive parent). The number of sensitive plants (severely injured and dead) is recorded 3 to 4 WAT. The survivors are re-acclimated for another week and re-sprayed with 8× glyphosate (the rate used to identify the resistant parent). The number of survivors is recorded 3 to 4 WAT. […] Expected ratios in the F2 population between sensitive, intermediate, and the resistant are evaluated with the model of one or two genes involved in the inheritance of glyphosate resistance as discussed in, for example, Diggle and Neve in Herbicide Resistance and World Grains, S. B. Powles and D. L. Shaner, eds. CRC Press, Boca Raton, London, New York, Washington, D.C., pp. 61-99 (2001). Chi-square analyses are used to determine the most acceptable ratio for F2 segregation and the inheritance of the glyphosate resistance.

Wild-type Agrobacterium = assay: Growth in M-9 media with glyphosate, wild-type; format: cell-based, Agrobacterium tumefaciens; conditions: 48 hours
Protocol: The confirmed plasmid is transformed into Agrobacterium tumefaciens by “freeze thaw technique” using liquid nitrogen. The transformed Agrobacterium is grown in LB plated and maintained 28° C. for 72 h. Some colonies are grown in LB broth for 24 h and tested for the inserted EPSPS gene by PCR. The confirmed Agrobacterium is grown in 50 mL LB broth for 24 h. The Agrobacterium is centrifuged at 5000×g for 10 min, and the pellets are diluted with 2 mL 1.0 M CaCl2. At the same time, a wild-type Agrobacterium is also grown and extracted similar to the transformed Agrobacterium. The Agrobacterium solutions (10 μL) are grown in 50 mL media containing 1×M-9 salt media (SIGMA), 20 mM glucose, 2 mM MgSO4, and glyphosate at 0, 0.25, 0.5, 0.75, 1.0, 1.5, and 2 mM.
The growth (indicated by Optical Density 600 nm) is measured after 48 hours.

O=C(O)CNCP(=O)(O)O [glyphosate, N-(phosphonomethyl) glycine]
Phenotype (Dead) ([1]; sample 1 S control, SNP No): 1X | Phenotype (Dead) ([1]; sample 2 R control, SNP Yes): 8X | Phenotype (Dead) ([1]; sample 3, SNP No): 2X | Phenotype (Dead) ([1]; sample 4, SNP Yes): 2X | Phenotype (Dead) ([1]; sample 5, SNP Yes): 8X | Phenotype (Dead) ([1]; sample 6, SNP No): 1X | Phenotype (Dead) ([1]; sample 7, SNP No): 4X | Phenotype (Dead) ([1]; sample 8, SNP No): 1X | Phenotype (Dead) ([1]; sample 9, SNP Yes): 4X | Phenotype (Dead) ([1]; sample 10, SNP No): 4X | Phenotype (Dead) ([1]; sample 11, SNP Yes): 4X | Phenotype (Dead) ([1]; sample 12, SNP Yes): 4X | Phenotype (Dead) ([1]; sample 13, SNP No): 1X | Phenotype (Dead) ([1]; sample 14, SNP No): 2X | Phenotype (Dead) ([1]; sample 15, SNP Yes): 4X | Phenotype (Dead) ([1]; sample 16, SNP Yes): 4X | Phenotype (Dead) ([1]; sample 17, SNP Yes): 6X | Phenotype (Dead) ([1]; sample 18, SNP Yes): 2X | Phenotype (Dead) ([1]; sample 19, SNP No): 4X | Phenotype (Dead) ([1]; sample 20, SNP No): 4X | Phenotype (Dead) ([1]; sample 21, SNP No): 4X | Phenotype (Dead) ([1]; sample 22 S control, SNP No): 1X | Phenotype (Dead) ([1]; sample 23 R control, SNP Yes): 8X | injury ([2]; 2× glyphosate, 4 WAT): 20-30% | recovery from injury ([2]; 2× glyphosate, after 5 weeks): full recovery | highest glyphosate rate survived ([2]; F1 progeny (RxS) and (SxR)): up to 2 × | effect on F1 plants ([2]; glyphosate at 4× and higher rates): killed | Sensitive plants (died from 0.125× glyphosate), observed ([3]; 0.125× glyphosate, 3 to 4 WAT): 27 plants | Intermediate plants (0.125x-8x), observed ([3]; between 0.125× and 8× glyphosate): 352 plants | Resistant plants (survived 8× glyphosate), observed ([3]; re-sprayed with 8× glyphosate, 3 to 4 WAT): 21 plants | Growth, OD 600 nm (Wild-type Agrobacterium; glyphosate 0.25 mM): 0.236 | Growth, Percent (Wild-type Agrobacterium; glyphosate 0.25 mM): 37% | Growth, OD 600 nm (Wild-type Agrobacterium; glyphosate 0.50 mM): 0.005 | Growth, Percent (Wild-type Agrobacterium; glyphosate 0.50 mM): 0.8% | Growth, OD 600 nm (Wild-type Agrobacterium; glyphosate 0.75 mM): 0.005 | Growth, Percent (Wild-type Agrobacterium; glyphosate 0.75 mM): 0.8% | Growth, OD 600 nm (Wild-type Agrobacterium; glyphosate 1.00 mM): 0.004 | Growth, Percent (Wild-type Agrobacterium; glyphosate 1.00 mM): 0.8% | Growth, OD 600 nm (Wild-type Agrobacterium; glyphosate 1.50 mM): 0.004 | Growth, Percent (Wild-type Agrobacterium; glyphosate 1.50 mM): 0.8% | Growth, OD 600 nm (Wild-type Agrobacterium; glyphosate 2.00 mM): 0.004 | Growth, Percent (Wild-type Agrobacterium; glyphosate 2.00 mM): 0.8%
